The assay addresses T1, ATP-dependent 6-phosphofructokinase (Trypanosoma brucei, UniProt O15648).
T1 sequence (O15648 whole entry): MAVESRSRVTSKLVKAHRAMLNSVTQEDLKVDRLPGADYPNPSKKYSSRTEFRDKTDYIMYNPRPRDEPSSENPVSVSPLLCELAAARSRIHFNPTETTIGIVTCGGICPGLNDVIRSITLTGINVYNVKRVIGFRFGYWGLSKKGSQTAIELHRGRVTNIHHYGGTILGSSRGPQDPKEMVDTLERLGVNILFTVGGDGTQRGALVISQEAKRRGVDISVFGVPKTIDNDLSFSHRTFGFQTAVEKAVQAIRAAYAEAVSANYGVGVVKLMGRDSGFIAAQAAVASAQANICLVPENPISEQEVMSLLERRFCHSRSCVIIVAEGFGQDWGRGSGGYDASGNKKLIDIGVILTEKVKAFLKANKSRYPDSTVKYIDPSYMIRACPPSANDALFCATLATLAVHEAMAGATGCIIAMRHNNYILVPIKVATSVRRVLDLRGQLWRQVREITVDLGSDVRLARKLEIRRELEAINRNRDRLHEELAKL
In words: Inhibition of Trypanosoma brucei phosphofructokinase.

As a reminder, the IC50 is the midpoint of a concentration-inhibition curve. Read a low IC50 as greater potency.

As for `OC[C@H]1O[C@H](CNc2ccc3ccccc3c2)[C@@H](O)[C@@H]1O`, inhibition was half-maximal at 900 µM (IC50).

`OC[C@H]1O[C@H](CNc2ccc(Cl)c(Cl)c2)[C@@H](O)[C@@H]1O` registered an IC50 of 410 µM.

(Values after ChEMBL document CHEMBL3217681, “Phosphofructokinase: structural and functional aspects and design of selective inhibitors” (Medchemcomm, 2012).)
